Assay results from ChEMBL document CHEMBL5291721, “A preclinical secondary pharmacology resource illuminates target-adverse drug reaction associations of marketed drugs” (Nat Commun, 2023).

Assays:
[1] = molecular target: T1, Alpha-2B adrenergic receptor (Homo sapiens, UniProt P18089)
T1 sequence (P18089 whole entry): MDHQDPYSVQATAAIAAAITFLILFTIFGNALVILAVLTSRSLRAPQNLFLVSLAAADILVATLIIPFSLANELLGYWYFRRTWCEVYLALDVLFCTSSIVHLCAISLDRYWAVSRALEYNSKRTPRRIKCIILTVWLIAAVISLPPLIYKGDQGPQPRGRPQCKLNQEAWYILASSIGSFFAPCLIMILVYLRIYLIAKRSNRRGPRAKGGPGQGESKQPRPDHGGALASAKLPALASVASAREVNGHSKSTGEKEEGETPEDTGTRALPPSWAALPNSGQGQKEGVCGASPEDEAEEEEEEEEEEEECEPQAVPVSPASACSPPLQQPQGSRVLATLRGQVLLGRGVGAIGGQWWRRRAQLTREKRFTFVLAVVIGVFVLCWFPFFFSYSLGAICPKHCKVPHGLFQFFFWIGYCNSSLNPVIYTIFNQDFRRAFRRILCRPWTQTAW

[2] = molecular target: Vasopressin V1a receptor (Homo sapiens, UniProt P37288)
Vasopressin V1a receptor, sequence (P37288 whole entry): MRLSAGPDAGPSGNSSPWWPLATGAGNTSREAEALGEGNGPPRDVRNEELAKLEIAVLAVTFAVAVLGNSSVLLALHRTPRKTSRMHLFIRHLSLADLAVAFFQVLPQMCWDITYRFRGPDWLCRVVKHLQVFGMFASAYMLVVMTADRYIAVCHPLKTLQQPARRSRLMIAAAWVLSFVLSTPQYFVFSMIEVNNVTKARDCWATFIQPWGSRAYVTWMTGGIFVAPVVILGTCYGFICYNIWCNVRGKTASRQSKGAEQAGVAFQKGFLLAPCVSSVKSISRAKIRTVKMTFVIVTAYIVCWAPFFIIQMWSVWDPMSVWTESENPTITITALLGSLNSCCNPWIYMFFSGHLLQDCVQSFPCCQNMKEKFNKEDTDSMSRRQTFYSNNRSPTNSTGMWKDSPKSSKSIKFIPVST

[3] = molecular target: Vasopressin V2 receptor (Homo sapiens, UniProt P30518)
Vasopressin V2 receptor, sequence (P30518 whole entry): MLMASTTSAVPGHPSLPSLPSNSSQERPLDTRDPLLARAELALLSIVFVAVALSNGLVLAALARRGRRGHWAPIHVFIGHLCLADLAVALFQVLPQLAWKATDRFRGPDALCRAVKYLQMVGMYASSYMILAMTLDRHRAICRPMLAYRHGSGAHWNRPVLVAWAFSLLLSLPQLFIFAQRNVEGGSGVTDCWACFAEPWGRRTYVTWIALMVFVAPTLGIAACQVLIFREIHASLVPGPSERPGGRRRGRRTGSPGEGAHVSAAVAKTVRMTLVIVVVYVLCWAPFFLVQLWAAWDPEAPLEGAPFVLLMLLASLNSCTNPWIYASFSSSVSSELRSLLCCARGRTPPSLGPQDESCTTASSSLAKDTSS

[4] = molecular target: T2, B2 bradykinin receptor (Homo sapiens, UniProt P30411)
T2 sequence (P30411 whole entry): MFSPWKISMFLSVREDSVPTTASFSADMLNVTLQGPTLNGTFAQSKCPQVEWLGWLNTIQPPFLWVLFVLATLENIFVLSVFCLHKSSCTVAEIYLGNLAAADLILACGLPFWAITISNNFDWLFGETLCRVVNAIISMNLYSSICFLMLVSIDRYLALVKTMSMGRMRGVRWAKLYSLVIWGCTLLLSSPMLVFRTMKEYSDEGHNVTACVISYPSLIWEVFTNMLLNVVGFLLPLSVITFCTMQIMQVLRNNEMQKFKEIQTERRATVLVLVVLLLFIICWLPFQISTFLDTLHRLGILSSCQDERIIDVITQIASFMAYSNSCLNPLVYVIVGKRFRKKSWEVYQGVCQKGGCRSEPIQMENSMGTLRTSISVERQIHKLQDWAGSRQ

[5] = molecular target: Gamma-aminobutyric acid receptor subunit alpha-1 (Rattus norvegicus, UniProt P62813)
Gamma-aminobutyric acid receptor subunit alpha-1, sequence (P62813 whole entry): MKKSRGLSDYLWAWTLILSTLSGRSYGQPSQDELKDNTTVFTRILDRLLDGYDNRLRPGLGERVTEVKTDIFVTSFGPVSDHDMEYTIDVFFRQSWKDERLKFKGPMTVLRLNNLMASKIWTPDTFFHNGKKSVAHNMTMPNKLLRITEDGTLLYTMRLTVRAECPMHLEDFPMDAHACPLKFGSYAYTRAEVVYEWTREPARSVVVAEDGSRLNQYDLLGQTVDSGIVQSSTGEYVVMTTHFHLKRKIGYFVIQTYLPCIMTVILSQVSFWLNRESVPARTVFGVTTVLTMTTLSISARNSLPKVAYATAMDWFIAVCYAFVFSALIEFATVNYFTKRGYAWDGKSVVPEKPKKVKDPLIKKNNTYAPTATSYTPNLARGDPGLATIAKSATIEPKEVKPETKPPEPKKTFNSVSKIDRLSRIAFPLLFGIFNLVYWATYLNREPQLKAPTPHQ

[6] = molecular target: Growth hormone secretagogue receptor type 1 (Homo sapiens, UniProt Q92847)
Growth hormone secretagogue receptor type 1, sequence (Q92847 whole entry): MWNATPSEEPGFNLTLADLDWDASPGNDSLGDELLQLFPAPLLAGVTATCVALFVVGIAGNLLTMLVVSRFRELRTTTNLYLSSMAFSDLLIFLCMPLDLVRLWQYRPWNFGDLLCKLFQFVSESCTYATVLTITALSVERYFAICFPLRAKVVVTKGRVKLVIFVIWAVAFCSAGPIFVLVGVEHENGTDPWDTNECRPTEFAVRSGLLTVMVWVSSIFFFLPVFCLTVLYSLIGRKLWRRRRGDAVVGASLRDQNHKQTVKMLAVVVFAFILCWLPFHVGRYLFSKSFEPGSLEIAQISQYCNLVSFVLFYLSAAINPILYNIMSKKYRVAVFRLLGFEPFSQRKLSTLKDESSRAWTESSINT

[7] = molecular target: Glutamate receptor ionotropic, NMDA 1 (Rattus norvegicus, UniProt P35439)
[8] = molecular target: Histamine H1 receptor (Homo sapiens, UniProt P35367)
Histamine H1 receptor, sequence (P35367 whole entry): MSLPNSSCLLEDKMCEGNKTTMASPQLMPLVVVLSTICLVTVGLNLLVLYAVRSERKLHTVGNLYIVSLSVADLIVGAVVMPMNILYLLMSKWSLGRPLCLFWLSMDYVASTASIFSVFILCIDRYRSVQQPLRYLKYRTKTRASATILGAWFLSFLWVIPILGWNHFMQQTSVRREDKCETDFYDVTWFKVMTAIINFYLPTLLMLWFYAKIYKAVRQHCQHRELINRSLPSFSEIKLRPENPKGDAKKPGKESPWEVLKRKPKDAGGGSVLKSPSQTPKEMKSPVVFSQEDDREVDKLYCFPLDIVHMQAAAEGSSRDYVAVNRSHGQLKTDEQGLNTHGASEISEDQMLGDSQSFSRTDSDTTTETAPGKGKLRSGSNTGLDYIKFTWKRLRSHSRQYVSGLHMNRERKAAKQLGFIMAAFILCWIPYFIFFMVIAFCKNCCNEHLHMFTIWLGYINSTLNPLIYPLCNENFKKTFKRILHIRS

[9] = molecular target: T3, 5-hydroxytryptamine receptor 1A (Homo sapiens, UniProt P08908); format: functional, cell-based
T3 sequence (P08908 whole entry): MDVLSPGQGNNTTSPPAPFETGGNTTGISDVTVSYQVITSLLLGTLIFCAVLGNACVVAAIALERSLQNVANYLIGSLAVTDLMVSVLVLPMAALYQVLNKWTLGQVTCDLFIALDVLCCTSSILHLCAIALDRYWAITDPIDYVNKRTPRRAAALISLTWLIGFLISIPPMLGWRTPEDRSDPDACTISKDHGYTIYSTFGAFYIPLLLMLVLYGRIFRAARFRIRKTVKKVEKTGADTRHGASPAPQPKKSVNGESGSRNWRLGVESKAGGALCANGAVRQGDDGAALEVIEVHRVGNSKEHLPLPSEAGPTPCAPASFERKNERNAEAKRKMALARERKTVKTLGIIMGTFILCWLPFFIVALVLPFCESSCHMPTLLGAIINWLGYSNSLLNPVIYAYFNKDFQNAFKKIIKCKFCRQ

[10] = molecular target: T4, 5-hydroxytryptamine receptor 2C (Homo sapiens, UniProt P28335)
T4 sequence (P28335 whole entry): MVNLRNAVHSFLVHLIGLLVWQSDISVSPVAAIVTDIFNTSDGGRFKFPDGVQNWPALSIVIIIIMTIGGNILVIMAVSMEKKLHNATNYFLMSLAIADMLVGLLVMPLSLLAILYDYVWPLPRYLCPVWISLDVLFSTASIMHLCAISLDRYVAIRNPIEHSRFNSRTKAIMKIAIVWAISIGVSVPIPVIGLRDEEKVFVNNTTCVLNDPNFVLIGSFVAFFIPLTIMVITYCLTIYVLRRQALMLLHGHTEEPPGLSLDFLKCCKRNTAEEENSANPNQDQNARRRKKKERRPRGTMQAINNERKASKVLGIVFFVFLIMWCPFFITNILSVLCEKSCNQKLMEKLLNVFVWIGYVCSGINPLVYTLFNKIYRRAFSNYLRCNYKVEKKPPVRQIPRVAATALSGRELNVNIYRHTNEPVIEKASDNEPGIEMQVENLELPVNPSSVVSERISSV

[11] = molecular target: Melanocortin receptor 3 (Homo sapiens, UniProt P41968)
Melanocortin receptor 3, sequence (P41968 whole entry): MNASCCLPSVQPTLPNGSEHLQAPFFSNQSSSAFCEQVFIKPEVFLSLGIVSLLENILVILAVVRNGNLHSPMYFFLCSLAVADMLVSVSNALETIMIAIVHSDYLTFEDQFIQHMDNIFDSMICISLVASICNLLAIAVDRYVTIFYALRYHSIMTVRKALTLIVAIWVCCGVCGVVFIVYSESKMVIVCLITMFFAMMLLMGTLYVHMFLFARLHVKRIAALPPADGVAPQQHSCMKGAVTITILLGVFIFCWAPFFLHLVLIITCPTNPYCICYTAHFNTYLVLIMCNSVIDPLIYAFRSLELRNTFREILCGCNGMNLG

[12] = molecular target: T5, Prostaglandin G/H synthase 1 (Rattus norvegicus, UniProt Q63921); format: functional
T5 sequence (Q63921 whole entry): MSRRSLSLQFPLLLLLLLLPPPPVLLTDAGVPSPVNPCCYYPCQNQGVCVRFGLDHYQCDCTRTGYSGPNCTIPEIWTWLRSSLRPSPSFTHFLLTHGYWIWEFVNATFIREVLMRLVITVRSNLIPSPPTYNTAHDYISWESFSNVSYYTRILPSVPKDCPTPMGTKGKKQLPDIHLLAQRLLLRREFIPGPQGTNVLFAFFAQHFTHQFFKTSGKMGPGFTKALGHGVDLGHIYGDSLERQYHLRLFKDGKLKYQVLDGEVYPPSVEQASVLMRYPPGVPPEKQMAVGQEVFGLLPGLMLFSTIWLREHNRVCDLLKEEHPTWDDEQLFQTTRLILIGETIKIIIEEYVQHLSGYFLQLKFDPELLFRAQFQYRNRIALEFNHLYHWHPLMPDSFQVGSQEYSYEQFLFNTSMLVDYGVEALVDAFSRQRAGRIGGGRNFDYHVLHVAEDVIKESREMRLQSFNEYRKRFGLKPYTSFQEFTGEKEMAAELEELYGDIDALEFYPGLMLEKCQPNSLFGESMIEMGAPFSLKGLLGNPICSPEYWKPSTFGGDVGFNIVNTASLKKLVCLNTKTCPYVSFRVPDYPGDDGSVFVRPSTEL

[13] = molecular target: Sodium-dependent dopamine transporter (Homo sapiens, UniProt Q01959)
Sodium-dependent dopamine transporter, sequence (Q01959 whole entry): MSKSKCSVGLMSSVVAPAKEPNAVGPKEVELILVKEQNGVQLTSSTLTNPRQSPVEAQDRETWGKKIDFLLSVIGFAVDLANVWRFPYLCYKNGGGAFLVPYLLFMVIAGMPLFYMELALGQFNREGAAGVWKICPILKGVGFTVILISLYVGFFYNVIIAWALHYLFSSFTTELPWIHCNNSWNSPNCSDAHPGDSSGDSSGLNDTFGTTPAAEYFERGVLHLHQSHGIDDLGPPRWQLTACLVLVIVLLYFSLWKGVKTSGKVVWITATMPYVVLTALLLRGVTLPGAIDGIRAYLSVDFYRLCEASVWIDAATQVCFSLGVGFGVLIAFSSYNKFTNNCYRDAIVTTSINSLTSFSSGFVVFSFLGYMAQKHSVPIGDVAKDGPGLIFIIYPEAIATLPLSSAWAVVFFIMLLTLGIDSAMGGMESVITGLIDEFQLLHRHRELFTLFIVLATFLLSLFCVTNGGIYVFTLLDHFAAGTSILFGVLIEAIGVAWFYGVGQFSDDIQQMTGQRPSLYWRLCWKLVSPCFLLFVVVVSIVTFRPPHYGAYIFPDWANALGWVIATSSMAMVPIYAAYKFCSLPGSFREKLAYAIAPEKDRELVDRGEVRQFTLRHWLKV

[14] = molecular target: D(3) dopamine receptor (Homo sapiens, UniProt P35462)
D(3) dopamine receptor, sequence (P35462 whole entry): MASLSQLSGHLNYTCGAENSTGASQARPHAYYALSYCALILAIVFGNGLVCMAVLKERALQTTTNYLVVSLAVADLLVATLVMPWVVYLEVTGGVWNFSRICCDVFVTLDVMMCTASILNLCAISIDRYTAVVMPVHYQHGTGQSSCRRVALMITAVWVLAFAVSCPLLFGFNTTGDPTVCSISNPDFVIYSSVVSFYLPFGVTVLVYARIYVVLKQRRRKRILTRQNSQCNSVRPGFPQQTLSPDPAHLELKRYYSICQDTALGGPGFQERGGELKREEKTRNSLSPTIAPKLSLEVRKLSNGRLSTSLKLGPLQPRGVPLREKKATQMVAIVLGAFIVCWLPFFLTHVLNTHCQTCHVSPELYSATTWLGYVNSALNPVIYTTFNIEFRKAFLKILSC

[15] = molecular target: Histamine H3 receptor (Homo sapiens, UniProt Q9Y5N1)
Histamine H3 receptor, sequence (Q9Y5N1 whole entry): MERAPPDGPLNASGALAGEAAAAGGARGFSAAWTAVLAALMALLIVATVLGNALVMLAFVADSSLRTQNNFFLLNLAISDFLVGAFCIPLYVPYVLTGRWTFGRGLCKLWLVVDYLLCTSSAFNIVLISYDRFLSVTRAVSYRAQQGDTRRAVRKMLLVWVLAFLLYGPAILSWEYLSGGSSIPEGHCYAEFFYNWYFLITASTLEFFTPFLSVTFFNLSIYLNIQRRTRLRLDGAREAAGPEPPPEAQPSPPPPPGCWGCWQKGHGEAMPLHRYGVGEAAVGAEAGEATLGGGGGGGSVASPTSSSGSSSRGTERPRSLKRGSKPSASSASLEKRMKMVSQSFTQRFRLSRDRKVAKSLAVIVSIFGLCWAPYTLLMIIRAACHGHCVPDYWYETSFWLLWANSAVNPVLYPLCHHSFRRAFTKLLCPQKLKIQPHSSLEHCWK
Note: assay procedure not described here.

AC50 [1] [µM]	AC50 [2] [µM]	AC50 [3] [µM]	AC50 [4] [µM]	AC50 [5] [µM]	AC50 [6] [µM]	AC50 [7] [µM]	AC50 [8] [µM]	AC50 [9] [µM]	AC50 [10] [µM]	AC50 [11] [µM]	AC50 [12] [µM]	AC50 [13] [µM]	AC50 [14] [µM]	AC50 [15] [µM]	Structure (SMILES)
> 30	> 30	> 30	> 3	> 30	> 30	> 30	> 30	> 30	8.7	> 30	> 30	> 30	> 30	> 30	C[C@]12C=CC(=O)C=C1C(Cl)=C[C@@H]1[C@@H]2[C@@H](O)C[C@@]2(C)[C@H]1CC[C@]2(O)C(=O)CO [CLOPREDNOL]
> 30	> 30	> 30	> 30	> 30	> 30	> 30	> 30	> 30	> 30	> 30	> 30	> 30	> 30	> 30	C[C@]12CCC(=O)C=C1[C@@H]1C[C@@H]1[C@H]1[C@@H]3[C@@H]4C[C@@H]4[C@@]4(CCC(=O)O4)[C@@]3(C)CC[C@@H]12 [DROSPIRENONE]
> 30	> 30	> 30	> 30	> 30	> 30	> 30	> 30	> 30	> 30	> 30	> 30	> 30	> 30	> 30	C[C@]12CCC(=O)C=C1C=C[C@@H]1[C@@H]2CC[C@@]2(C)[C@H]1CC[C@@]21CCC(=O)O1 [CANRENONE]

Structure (SMILES)	AC50 [1] [µM]	AC50 [2] [µM]	AC50 [3] [µM]	AC50 [4] [µM]	AC50 [5] [µM]	AC50 [6] [µM]	AC50 [7] [µM]	AC50 [8] [µM]	AC50 [9] [µM]	AC50 [10] [µM]	AC50 [11] [µM]	AC50 [12] [µM]	AC50 [13] [µM]	AC50 [14] [µM]	AC50 [15] [µM]
Oc1cc(Cl)ccc1Oc1ccc(Cl)cc1Cl [TRICLOSAN]	> 30	> 30	> 30	> 30	> 10	> 30	> 30	> 30	> 30	> 30	> 30	> 30	24	> 30	> 30
